Source: ChEMBL document CHEMBL3351491, “Synthesis and preliminary biological evaluation of potent and selective 2-(3-alkoxy-1-azetidinyl) quinolines as novel PDE10A inhibitors with improved solubility” (Bioorg Med Chem, 2014)

Legend:
Type in all cases: ADME, organism-based
[1] = Clearance in Sprague-Dawley rat; conditions: in vivo
[2] = Volume of distribution at steady state in Sprague-Dawley rat at 2 mg/kg, iv; set-up: dose 2 mg/kg, route intravenous; conditions: in vivo, read-out: Vdss
[3] = Oral bioavailability in Sprague-Dawley rat at 10 mg/kg; conditions: in vivo
[4] = Half life in Sprague-Dawley rat at 2 mg/kg, iv; set-up: dose 2 mg/kg, route intravenous; conditions: in vivo
[5] = AUC (0 to infinity) in Sprague-Dawley rat at 10 mg/kg, po; set-up: time infinity, dose 10 mg/kg, route oral; conditions: plasma

SMILES | clearance [1] [mL/min/kg] | Vd [2] [L/kg] | bioavailability [3] [%] | half-life [4] [h] | AUC(0-inf) [5] [ng·h/mL]
CC(=O)N1CCC(c2nccnc2OC2CN(c3ccc4ccccc4n3)C2)CC1 | 16 | 1.55 | 62 | 3.64 | 17.4
CC(=O)N1CCC(c2nc3ccccc3nc2OC2CN(c3ccc4ccccc4n3)C2)CC1 | 9.5 | 1.55 | 57 | 2.35 | 27.9
OCC1CCN(c2nccnc2OC2CN(c3ccc4ccccc4n3)C2)CC1 | 61.3 | 4.81 | 18 | 6.42 | –
